Reference: patent US20220017486A1, “DOCK1-INHIBITING COMPOUND AND USE THEREOF” (KYUSHU UNIVERSITY, NATIONAL UNIVERSITY CORPORATION, priority 2018, published 2022)

Columns and labels:
[1] = test system: mouse lung carcinoma cell line (3LL cells); assay: Cell invasion inhibition assay (Matrigel invasion chamber); format: cell-based; conditions: in words
Procedure: In this Pharmacological Test, the inhibitory effect of each test compound on cell invasion response was evaluated using a mouse lung carcinoma cell line (3LL cells), a mouse pancreatic cancer cell line (PANC02 cells), and a human breast cancer cell line (MDA-MB-157 cells). Of these, the mouse lung carcinoma cell line (3LL) is a cancer cell line with mutant Ras (K-Ras (G12C)), and the human breast cancer cell line (MDA-MB-157) is a cancer cell line with mutant Rac (Rac1 (P29S)). The experiments were performed in BD BioCoat Matrigel invasion chambers (BD Biosciences).
Specifically, an upper chamber with a Matrigel-coated membrane insert (8 μm pores) at the bottom was equilibrated with DMEM (serum-free medium) for 120 minutes. Thereafter, 300 μL of a suspension of a cancer cell line in DMEM (serum-free) was placed in the upper chamber while 500 μL of DMEM (with 10 mass % FCS) was placed in the lower chamber. Each test compound dissolved in DMSO at a predetermined concentration was added to both the culture media in the upper and lower chambers. As a control, DMSO alone was added to both the culture media in the upper and lower chambers. In all of the experiments, the final DMSO concentration in the culture media was adjusted to 0.2 mass %.
The resulting products were cultured under 5% CO2 at 37° C. for 22 hours (3LL and PANC02 cells) or 48 hours (MDA-MB-157 cells). Then, the upper chamber was removed, and the culture medium was removed. Thereafter, non-invading cells remaining in the upper chamber were removed using a cotton swab, and the cells remaining outside the bottom of the upper chamber (cells that had invaded into the Matrigel, and passed through the membrane insert) were stained with Diff-Quick (Sysmex). After staining, the membrane inserts with Matrigel were cut out using a scalpel to prepare slides, and the number of invading cells was counted under an optical microscope.
The results were evaluated based on percent cell invasion (%: Invasion) and percent inhibition (%: Inhibition). The percent cell invasion was obtained by converting the number of invading cells in the presence of each test compound into a percentage, taking the number of invading cells in the control test, in which DMSO was added alone, as 100%; and the percent inhibition was obtained by deducting the percent cell invasion from 100.

DOCK1 (DHR-2 domain) = target: T1, DOCK1 (DHR-2 domain) (Homo sapiens, UniProt Q14185); assay: In vitro GEF assay: Rac activation by DOCK1 DHR-2 domain; format: biochemical, mice and humans; conditions: in words; for DOCK1-inhibiting activity compared with TBOPP / selective inhibitory activity against DOCK1 compared to TBOPP: GEF assay; for selective inhibitory activity against DOCK1 versus DOCK2: GEF assay DOCK1 vs DOCK2 DHR-2 domain
T1 construct: polypeptide fragments corresponding to the DHR-2 domain of DOCK1 or DOCK2 from mice and humans; Histidine-SUMO (N); made in house; host or cells: E. coli Arctic express (DE3)
T1 sequence (Q14185 1207-1617 limits assumed): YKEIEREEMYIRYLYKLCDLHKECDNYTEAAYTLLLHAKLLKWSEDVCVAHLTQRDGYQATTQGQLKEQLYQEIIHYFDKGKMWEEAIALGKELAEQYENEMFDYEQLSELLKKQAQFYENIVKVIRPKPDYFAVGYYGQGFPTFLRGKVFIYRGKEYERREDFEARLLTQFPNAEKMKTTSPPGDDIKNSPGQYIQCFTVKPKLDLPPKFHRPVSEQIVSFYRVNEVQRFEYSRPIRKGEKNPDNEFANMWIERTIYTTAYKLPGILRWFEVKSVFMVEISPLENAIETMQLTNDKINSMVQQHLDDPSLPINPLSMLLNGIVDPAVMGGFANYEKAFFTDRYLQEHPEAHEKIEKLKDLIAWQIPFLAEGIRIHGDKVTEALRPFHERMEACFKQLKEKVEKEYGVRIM
Procedure: DOCK1 and DOCK2, i.e., DOCK-A subfamily members, both activate Rac by catalyzing the GTP-GDP exchange reaction for Rac via their DHR-2 domains. Therefore, in this Pharmacological Test, the inhibitory effect of the compounds of the present invention on Rac activation by DOCK1 or DOCK2 was assessed in an in vitro GEF assay by using polypeptide fragments corresponding to the DHR-2 domain of DOCK1 or DOCK2 from mice and humans. The in vitro GEF assay was performed using a labeled GTP (Bodipy-FL-GTP, Invitrogen), which has a property of increasing the fluorescence intensity when bound to Rac.
The polypeptide fragments corresponding to the DHR-2 domain of DOCK1 or DOCK2 were prepared by expression in E. coli Arctic express (DE3) cells as N-terminal. Histidine-SUMO tag-fused recombinant proteins, followed by purification by affinity column chromatography on nickel-NTA columns.
Rac was prepared by expression in E. coli BL21 (DE3) cells as an N-terminal GST tag-fused recombinant protein, followed by purification by affinity column chromatography on glutathione-Sepharose columns.
Each of the polypeptide fragments corresponding to the DHR-2 domain of DOCK1 or DOCK2, and a predetermined concentration of each test compound (the compounds of the present invention: 33 types of compounds; and comparative compound: TBOPP) dissolved in DMSO were incubated in a reaction solution A (pH 7.0), which contained 20 mM of MES-NaOH, 150 mM of NaCl, 10 mM of MgCl2, and 20 μM of GDP for 20 minutes at room temperature while being shielded from light to thus prepare GEF pretreated products. The final concentration of DMSO was adjusted to 1 mass % in all of the test samples. For a control test, a GEF pretreated product (control) was prepared by incubation in the same manner using DMSO with no test compounds, instead of the DMSO used above in which each test compound was dissolved.
Separately, Rac was added to the reaction solution A (pH 7.0) to a concentration of 15 μM, and was allowed to stand on for 30 min to form a GDP-Rac complex. Bodipy-FL-GTP was added to a concentration of 3.6 μM to 100 μL of the reaction solution A that contained the thus-prepared GDP-Rac complex, and equilibrated at 30° C. for 2 minutes. After equilibration, 50 μL of the GEF pretreated product prepared as described above was added and reacted at 30° C.
Changes in fluorescence intensity of Bodipy-FL-GTP in the reaction solutions were monitored using an EnSpire spectrofluorometer (Perkin Elmer) (excitation wavelength: 488 nm, fluorescence wavelength: 514 nm). The measured values were corrected so that the fluorescence intensity at the beginning of the reaction (0 sec) was 0. Then, an approximate curve (hyperbola) was obtained by plotting the calculated correction values on the y-axis and the time (t) on the x-axis using GraphPad Prism5 (GraphPad software), and the slope at t=0 to 10 seconds was defined as the initial velocity of the guanine nucleotide exchange reaction. The IC50 value was calculated taking the initial reaction velocity of the control, to which only a solvent (DMSO) was added, as 100%.
Based on the obtained results, columns A and B of FIG. 1, FIG. 2, FIG. 3-1, and FIG. 3-2 show the results evaluating the inhibitory effect on Rac activation by DOCK1 (DHR-2 domain) (IC50 value), and DOCK1-selective inhibitory effect (DOCK1/DOCK2 selectivity) of each test compound. The inhibitory effect on Rac activation by DOCK1 (DHR-2 domain) (IC50 value) was determined from the reaction inhibition curve plotted using values of Rac activation by the DOCK1 DHR-2 domain in the presence of various concentrations of the test compounds, taking the values of the control as 100%. […]

Row | DOCK1-inhibiting activity compared with TBOPP (DOCK1 (DHR-2 domain)) | SMILES | percent cell invasion inhibition compared with TBOPP [1] | selective inhibitory activity against DOCK1 compared to TBOPP (DOCK1 (DHR-2 domain)) | selective inhibitory activity against DOCK1 versus DOCK2 (DOCK1 (DHR-2 domain))
1 | – | CCC(=O)c1cc(S(=O)(=O)N2CCCC2)cn1CC(=O)c1ccc(-c2cccc(C(F)(F)F)c2)cc1 [HS-17, 1-(1-(2-oxo-2-(3′-(trifluoromethyl)-[1,1′-biphenyl]-4-yl)ethyl)-4-(pyrrolidin-1-yl-sulfonyl)-1H-pyrrol-2-yl)propan-1-one] | higher percent cell invasion inhibition than TBOPP | – | –
2 | – | O=C(Cn1cc(S(=O)(=O)N2CCCC2)ccc1=O)c1ccc(-c2ccc3ncccc3c2)cc1 [KS-23, 1-(2-oxo-2-(4-(quinolin-6-yl)phenyl)ethyl)-5-(pyrrolidin-1-yl-sulfonyl)pyridin-2(1H)-one] | higher percent cell invasion inhibition than TBOPP | – | –
3 | – | O=C(Cn1cc(S(=O)(=O)N2CCCC2)ccc1=O)c1ccc(-c2cccc(SC(F)(F)F)c2)cc1 [KS-21, 1-(2-oxo-2-(3′-((trifluoromethyl)thio)-[1,1′-biphenyl]-4-yl)ethyl)-5-(pyrrolidin-1-yl-sulfonyl)pyridin-2(1H)-one] | higher percent cell invasion inhibition than TBOPP | – | –
4 | – | Cc1cc(-c2ccc(C(=O)Cn3cc(S(=O)(=O)N4CCCC4)ccc3=O)cc2)ccc1N(C)C [KS-16, 1-(2-(4′-(dimethylamino)-3′-methyl-[1,1′-biphenyl]-4-yl)-2-oxoethyl)-5-(pyrrolidin-1-yl-sulfonyl)pyridin-2(1H)-one] | higher percent cell invasion inhibition than TBOPP | – | –
5 | – | Nc1cc(S(=O)(=O)N2CCCC2)cn(CC(=O)c2ccc(-c3cccc(C(F)(F)F)c3)cc2)c1=O [RT-13, 3-amino-1-(2-oxo-2-(3′-(trifluoromethyl)-[1,1′-biphenyl]-4-yl)ethyl)-5-(pyrrolidin-1-yl-sulfonyl)pyridin-2(1H)-one] | higher percent cell invasion inhibition than TBOPP | – | –
6 | – | O=C(Cn1cc(S(=O)(=O)N2CCCC2)ccc1=O)c1ccc(-c2cccc(C(F)(F)F)n2)cc1 [KS-22, 1-(2-oxo-2-(4-(6-(trifluoromethyl)pyridin-2-yl)phenyl)ethyl)-5-(pyrrolidin-1-yl-sulfonyl)pyridin-2(1H)-one] | higher percent cell invasion inhibition than TBOPP | – | –
7 | higher than those of TBOPP | O=C(Cn1cc(S(=O)(=O)N2CCC(c3ccc(-c4cc(F)c(F)c(F)c4)cc3)CC2)ccc1=O)c1ccc(-c2cc(F)c(F)c(F)c2)cc1 [KS-59, 1-(2-oxo-2-(3′,4′,5′-trifluoro-[1,1′-biphenyl]-4-yl)ethyl)-5-((4-(3′,4′,5′-trifluoro-[1,1′-biphenyl]-4-yl)piperidin-1-yl)sulfonyl)pyridin-2(1H)-one] | higher than those of TBOPP | higher than those of TBOPP | higher selective inhibitory activity against DOCK1 than against DOCK2
8 | – | O=C(Cn1cc(S(=O)(=O)N2CCCC2)ccc1=O)c1ccc(-c2ccc3cccnc3c2)cc1 [KS-18, 1-(2-oxo-2-(4-(quinolin-7-yl)phenyl)ethyl)-5-(pyrrolidin-1-yl-sulfonyl)pyridin-2(1H)-one] | higher percent cell invasion inhibition than TBOPP | – | –
9 | slightly lower DOCK1-inhibiting activity | O=S(=O)(c1cc(CO)n(CC(O)c2ccc(-c3cccc(C(F)(F)F)c3)cc2)c1)N1CCCC1 (stereo not shown) [HS-14, 2-(2-(hydroxymethyl)-4-(pyrrolidin-1-yl-sulfonyl)-1H-pyrrol-1-yl)-1-(3′-(trifluoromethyl)-[1,1′-biphenyl]-4-yl)ethan-1-ol] | – | higher selective inhibitory activity against DOCK1 | higher selective inhibitory activity against DOCK1 than against DOCK2
10 | – | CCCCCCOc1cc(-c2cccc(C(F)(F)F)c2)ccc1C(=O)C(CCCCCC)n1cc(S(=O)(=O)N2CCCC2)ccc1=O (stereo not shown) [AK-23, 1-(1-(3-(hexyloxy)-3′-(trifluoromethyl)-[1,1′-biphenyl]-4-yl)-1-oxooctan-2-yl)-5-(pyrrolidin-1-yl-sulfonyl)pyridin-2(1H)-one] | – | – | higher selective inhibitory activity against DOCK1 than against DOCK2
11 | – | COC(=O)c1cc(S(=O)(=O)N2CCCC2)cn1CC(O)c1ccc(-c2cccc(C(F)(F)F)c2)cc1 (stereo not shown) [HS-6, methyl 1-(2-hydroxy-2-(3′-(trifluoromethyl)-[1,1′-biphenyl]-4-yl)ethyl)-4-(pyrrolidin-1-yl-sulfonyl)-1H-pyrrole-2-carboxylate] | higher percent cell invasion inhibition than TBOPP | – | higher selective inhibitory activity against DOCK1 than against DOCK2
12 | – | O=C(Cn1cc(S(=O)(=O)N2CCCC2)cc1-c1ncco1)c1ccc(-c2cccc(C(F)(F)F)c2)cc1 [RT-58, 2-(2-(oxazol-2-yl)-4-(pyrrolidin-1-yl-sulfonyl)-1H-pyrrol-1-yl)-1-(3′-(trifluoromethyl)-[1,1′-biphenyl]-4-yl)ethan-1-one] | higher percent cell invasion inhibition than TBOPP | – | higher selective inhibitory activity against DOCK1 than against DOCK2
